Data on one compound can be found in article PMC10108821, “Three tyrosine kinase inhibitors cause cardiotoxicity by inducing endoplasmic reticulum stress and inflammation in cardiomyocytes” (BMC Medicine, 2023).

Molecules are shown by their SMILES.

In data set [1] the test system is NRCMs. Description: Calcium staining with Calbryte 520 AM. The conditions noted are these: 0.5 and 1 h; 10 µM afatinib, 10 µM sorafenib, 5.62 µM ponatinib. It counts as cell-based, rat.
The subject of data set [2] is NRCMs. Description: Seahorse assay: oxygen consumption and extracellular acidification. The format is cell-based, rat. The conditions noted are these: 24 h; fixed doses: 10 µM, crizotinib and ponatinib 3.16 µM.
In data set [3] the test system is NRCMs. Kind of data set: Mitochondrial membrane potential by TMRE staining. The format is cell-based, rat. Particulars: 24 h of treatment.
From the text: Fig S3 Mitochondrial membrane potential changes in response to TKIs. (A) Raw images of TMRE staining in NRCMs treated with different drugs. (B) Fold changes in mitochondrial membrane potential at different treatments.
The subject of data set [4] is NRCMs. Description: Lipid peroxidation by C11-bodipy 581/591 and flow cytometry. The protocol:
(§1) For ROS assessment, cells were washed with PBS once and stained with 10μM H2DCFHDA (MCE) in phenol red-free DMEM (Procell) in a humid incubator with 5% CO2 at 37°C for 30 minutes. Cells were washed with PBS twice and dissociated to single cells before flow cytometry analysis at the FITC channel. For lipid peroxidation measurement, cells were washed with PBS once and stained with 2μM C11-bodipy^581/591 (Cayman) in phenol red-free DMEM (Procell) in a humid incubator with 5% CO2 at 37°C for 30 minutes. Cells were washed with PBS twice and dissociated to single cells before flow cytometry analysis at both the FITC and the PE channels. Fluorescence of the oxidized C11-bodipy were acquired through the FITC channel (Ex/Em=488/520nm) and that of the non-oxidized C11-bodipy through the PE channel (Ex/Em=555/624nm).

The subject of data set [5] is NRCMs. Kind of data set: ROS by H2DCFDA staining and flow cytometry. Particulars: 3 h; 10 µM afatinib, 10 µM sorafenib, 5.62 µM ponatinib. The procedure:
as §1
In general terms: Flow cytometry measures light scatter and fluorescence of single cells or particles in a stream.

The subject of data set [6] is rat left ventricles. Description: Rat gavage cardiotoxicity model: qRT-PCR in left ventricles. Particulars: ponatinib 15 mg/kg, sorafenib 50 mg/kg gavage, 3 or 7 days. It counts as in vivo.
Method: All experiments were performed in accordance with relevant guidelines and regulations approved by the Institutional Animal Care and Use Committee (IACUC) at Peking University Health Science Center. Sprague-Dawley rats (170-200g) were purchased from Beijing Vital River Laboratory Animal Technology. Forty-eight male rats were randomly divided into six groups, with 8 animals per group. […] The gavage was done daily starting at 10am. At the end of the experiments, rats were euthanized by CO2 about 5~6 hours after the last gavage, and then hearts were harvested for further study. Left ventricular muscle was dissected and divided into 3 parts with similar size, one of which was used for RNA extraction and qRT-PCR.
RNA was isolated based on a standard protocol using TRIzol reagent (Vazyme). TRIzol (1ml per 1 well of a 6-well plate) was used to lyse cells and chloroform was added for RNA separation. Samples were shaked vigorously by hand for 15 seconds and incubated at room temperature for 2-3 minutes. RNA was present in the aqueous phase after centrifuge at 12000 x g for 15 minutes. Isopropyl alcohol was mixed to precipitate RNA from the aqueous phase. […] 1 μg total RNA was used for cDNA synthesis using a reverse transcription kit (Bioman). We then measured expression of genes of interest with SYBRR Green qPCR Mix (Bioman) using Applied Biosystems 7500 Quantitative PCR Instrument. […]
Data set [7] relates to Phospho-eIF2α, XBP1s, ATF6 (cleaved). Kind of data set: Western blot of ER stress effectors in NRCMs. The format is cell-based, rat.
Method: Cells were homogenized in the RIPA lysis buffer (Applygen) containing protease and phosphatase inhibitor cocktails (Bimake). The extract was spun at 12,000xg for 20min at 4°C. Total protein was measured by BCA (Thermofisher) and resolved by sodium dodecyl sulfate–polyacrylamide gel electrophoresis (SDS-PAGE). Proteins were blotted to polyvinylidene difluoride membranes (Amersham). Blots were blocked with non-fat milk (BBI Life Sciences) and incubated with antibodies against ATF6 (proteintech), phospho-eIF2α (ABclonol), XBP1 (ABclonol) and GAPDH (proteintech). Goat anti-rabbit IgG, goat anti-mouse IgG were incubated with the blots for 1 hour at room temperature. After 3 washes with 1xTBST (50 mM Tris-Cl, 150 mM NaCl, 0.1% Tween 20, pH 7.5), the blots were developed with the ECL Plus Kit (Absin). Relative protein expression was quantified by optical density and normalized to GAPDH.
[8] abbreviates: Sprague-Dawley, rat, 24 h, 10 µM.

On to `CNC(=O)c1cc(Oc2ccc(NC(=O)Nc3ccc(Cl)c(C(F)(F)F)c3)cc2)ccn1` [sorafenib], for which, in data set [1], the cytosolic calcium concentration result was “significant cytosolic overload of Ca^2+”. For the same compound, in data set [2], the “basal oxygen consumption rate (OCR)” value is listed as “significant inhibition”; the “maximal, spare and non-mitochondrial oxygen consumption” value was “inhibited maximal, spare, and non-mitochondrial oxygen consumption significantly”. Moreover, the mitochondrial membrane potential result in data set [3] was “decreased the mitochondrial membrane potential significantly”. The “change in percent of cells with high lipid peroxidation” value in data set [4] is given as “increased slightly”. For the same compound, in data set [4] (setting [8]), the “level of lipid peroxidation, TKI alone” value is reported as 94.6% and the “level of lipid peroxidation, TKI with trolox” value is reported as 88%. The “increase in percent of ROS-high cells” value in data set [5] is given as 16.2%. For the same compound, in data set [6], the “gene expression of Anp” value is reported as “did not induce a significant change”. For the same compound, in data set [7], the “duration of activated eIF2α phosphorylation” value stood at 6 h.
